Experiment [1] deals with T1, human recombinant bradykinin B1 receptor (Homo sapiens, UniProt P46663).
T1 construct: purchased Euroscreen ES-091; host or cells: CHO cells
T1 sequence (P46663 1-353): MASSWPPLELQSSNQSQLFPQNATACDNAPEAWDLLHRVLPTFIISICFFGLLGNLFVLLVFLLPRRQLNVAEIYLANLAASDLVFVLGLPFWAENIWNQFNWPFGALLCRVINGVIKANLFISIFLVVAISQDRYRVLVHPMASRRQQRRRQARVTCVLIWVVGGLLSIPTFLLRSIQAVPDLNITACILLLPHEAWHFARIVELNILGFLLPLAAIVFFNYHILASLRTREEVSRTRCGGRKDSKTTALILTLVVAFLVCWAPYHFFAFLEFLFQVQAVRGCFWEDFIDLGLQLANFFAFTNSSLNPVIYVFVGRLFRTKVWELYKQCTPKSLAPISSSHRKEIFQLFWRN
Nature of the experiment: Human recombinant bradykinin B1 receptor binding. As to conditions: CHO cell membranes, [3H]-[Des-Arg10] Kallidin radioligand; read-out: B1 binding. How it is done:
Receptor Binding Assays 1. Human Recombinant Bradykinin B1 Receptor Binding
Binding assays were carried out on human recombinant bradykinin) receptors (expressed in CHO cells) according to the Euroscreen Technical Data Sheet (Cat.No.:ES-091). 20 μg protein/tube was incubated with [3,4-prolyl-3,4-^3H(N)]-[Des-Arg^10] Kallidin as radioligand. Non specific binding was determined in the presence of 10 μM Lys-des-Arg^9-Bradykinin. The final incubation volume was 250 μl. Samples were incubated for 15 min. at 25° C. then were rapidly vacuum filtered through GF/B filters presoaked for at least 1 h in 0.5% PEI. Radioactivity was determined by liquid scintillation spectroscopy.

Experiment [2] deals with T2, recombinant human B1 receptors (Homo sapiens, UniProt P46663).
T2 construct: host or cells: CHO (CHO-B1)
T2 sequence (P46663 1-353): T1 sequence (P46663 1-353)
Nature of the experiment: Functional assay: antagonist potency by cytosolic calcium measurement in CHO-B1 cells (agonist LysDABK). The class given is cell-based. As to conditions: CHO-B1 cells, LysDABK at EC80, fluo-4 [Ca2+]i; read-out: B1 func. How it is done:
Assessment of Antagonist Potency at B1 and B2 Receptors In Vitro by Measurement of Cytosolic Calcium Ion Concentration with a Plate Reader Fluorimeter in Cells Expressing Recombinant Human B1 or B2 Receptors
Chinese hamster ovary (CHO) cells stably expressing recombinant human B1 (CHO-B1, Euroscreen) or B2 (CHO-B2, Perkin-Elmer) receptors were cultured in Dulbecco's Modified Eagle's Medium (DMEM) containing 10% Fetal Calf Serum (FCS), 100 U/ml penicillin, 0.1 mg/ml streptomycin, 0.25 μg/ml amphotericin B, 1% Minimum Essential Medium Eagle (MEM), non essential amino acid solution, 600 μg/ml G418, 1% pyruvate (for the B2 cell line). Cells were kept at 37° C. in a humidified incubator in an atmosphere of 5% CO2/95% air and were passaged 1:4 three times a week. Cells were plated at 1.5-2.5×10^4 cell/well on standard 96-well microplates, measurements of cytosolic calcium ion concentration ([Ca^2+]i) were carried out 1-2 days after cell plating.
Measurements of [Ca^2+]i were carried out on CHO-B1 and CHO-B2 cells stably expressing human B1 and B2 receptors, respectively. Cells were grown in standard 96-well microplates and before the measurement were loaded with a fluorescent Ca^2+-sensitive dye, fluo-4/AM (2 μM): after removing the culture medium the dye was added to the cells (dissolved in assay buffer: 145 mM NaCl, 5 mM KCl, 2 mM MgCl2, 2 mM CaCl2, 10 mM HEPES, 20 mM D-glucose, 2 mM probenecid, 100 μl/well) and cells were incubated at 37° C. in a humidified incubator in an atmosphere of 5% CO2/95% air for 40-120 min. To stop dye loading cells were washed twice with assay buffer. After washing, various concentrations of the test compounds (diluted in extracellular medium from a DMSO stock solution, final DMSO concentration was <0.1%) or buffer were added to each well depending on the experimental setup. After incubation at 37° C. for 20-25 min. baseline and agonist-evoked changes of [Ca^2+]i were measured column by column with a plate reader fluorimeter (Fluoroskan Ascent, Labsystems). Excitation and detection of emission was carried out from the bottom of the plate. Filters used for Fluo-4: excitation filter—485 nm, emission filter—538 nm. The whole measurement process was performed at 37° C. and was controlled by custom software. Inhibitory potency of the test compounds was assessed by measuring the reduction in the agonist-evoked [Ca^2+]i-elevation in the presence of different concentrations of the compounds. The agonists were LysDABK for CHO-B1, and bradykinin for CHO-B2 cells. Agonists were applied at an EC80 concentration, the EC80-values were derived from daily determined dose-response curves. Fluorescence data were expressed as ΔF/F (fluorescence change normalized to baseline). All treatments on a single plate were measured in multiple wells. Data from all wells with the same treatment were averaged and the average values were used for analysis. Inhibitory potency of a compound at a single concentration point was expressed as percent inhibition of the control agonist response. Sigmoidal concentration-inhibition curves were fitted to the data (derived from at least three independent experiments) and IC50-values were determined as the concentration that produces half of the maximal inhibition caused by the compound.

Where a name gives a salt, the structure may show the parent alone.

On to `O=C(NCC(=O)N1CCN(CCCN2CCCC2)CC1)c1ccc(S(=O)(=O)Nc2ccccc2Oc2ccccc2)cc1` [Example 2.5, N-{2-Oxo-2-[4-(3-pyrrolidin-1-yl-propyl)-piperazin-1-yl]-ethyl}-4-(2-phenoxy-phenylsulfamoyl)-benzamide], for which the Ki in experiment [1] is below 20 nM. Moreover, the IC50 in experiment [2] was below 20 nM.

Consider `CN1CCCC(CN2CCN(C(=O)CNC(=O)c3ccc(S(=O)(=O)Nc4ccccc4C(=O)c4ccccc4)cc3)CC2)C1` (centres unmarked) [Example 3.8, 4-(2-Benzoyl-phenylsulfamoyl)-N-{2-[4-(1-methyl-piperidin-3-ylmethyl)-piperazin-1-yl]-2-oxo-ethyl}-benzamide], for which the Ki in experiment [1] is below 20 nM. The IC50 in experiment [2] is below 20 nM.

Regarding `O=C(NCC(=O)N1CCC(O)CC1)c1ccc(S(=O)(=O)Nc2ccccc2Oc2ccc(Cl)cc2Cl)cc1` [Example 1.22, 4-[2-(2,4-Dichloro-phenoxy)-phenylsulfamoyl]-N-[2-(4-hydroxy-piperidin-1-yl)-2-oxo-ethyl]-benzamide], the Ki in experiment [1] was below 20 nM. Moreover, the IC50 in experiment [2] is below 20 nM.

Regarding `N#CC1CCN(C(=O)CNC(=O)c2ccc(S(=O)(=O)Nc3ccccc3C(=O)c3ccccc3)cc2)CC1` [Example 3.5, 4-(2-Benzoyl-phenylsulfamoyl)-N-[2-(4-cyano-piperidin-1-yl)-2-oxo-ethyl]-benzamide], in experiment [1], the Ki was below 20 nM. In experiment [2], the IC50 is below 20 nM.

`O=C(NCC(=O)N1CCC(CCO)CC1)c1ccc(S(=O)(=O)Nc2ccccc2C(=O)c2ccccc2)cc1` [Example 3.10, 4-(2-Benzoyl-phenylsulfamoyl)-N-{2-[4-(2-hydroxy-ethyl)-piperidin-1-yl]-2-oxo-ethyl}-benzamide]: in experiment [1], the Ki was below 20 nM. Also, the IC50 in experiment [2] is below 20 nM.

For `O=C(NCC(=O)N1CCC(C(F)(F)F)CC1)c1ccc(S(=O)(=O)Nc2ccccc2C(=O)c2ccccc2)cc1` [Example 3.6, 4-(2-Benzoyl-phenylsulfamoyl)-N-[2-oxo-2-(4-trifluoromethyl-piperidin-1-yl)-ethyl]-benzamide], the Ki in experiment [1] is below 20 nM. Besides, the IC50 in experiment [2] is below 20 nM.

Take `O=C(NCC(=O)N1CCC(CO)CC1)c1ccc(S(=O)(=O)Nc2ccccc2C(=O)c2ccccc2)cc1` [Example 3.9, 4-(2-Benzoyl-phenylsulfamoyl)-N-[2-(4-hydroxymethyl-piperidin-1-yl)-2-oxo-ethyl]-benzamide]: the Ki in experiment [1] was below 20 nM. In addition, the IC50 in experiment [2] was below 20 nM.

`O=C(NCC(=O)N1CCN(CCN2CCCC2)CC1)c1ccc(S(=O)(=O)Nc2ccccc2C(=O)c2ccccc2)cc1` [Example 3.1, 4-(2-Benzoyl-phenylsulfamoyl)-N-{2-oxo-2-[4-(2-pyrrolidin-1-yl-ethyl)-piperazin-1-yl]-ethyl}-benzamide]: the Ki in experiment [1] is below 20 nM. For the same compound, the IC50 in experiment [2] is below 20 nM.

For the compound `O=C(NCC(=O)N1CCN(CCCN2CCCC2)CC1)c1ccc(S(=O)(=O)Nc2ccccc2C(=O)c2ccccc2)cc1` [Example 3.13, 4-(2-Benzoyl-phenylsulfamoyl)-N-{2-oxo-2-[4-(3-pyrrolidin-1-yl-propyl)-piperazin-1-yl]-ethyl}-benzamide], the Ki in experiment [1] was below 20 nM. Moreover, in experiment [2], the IC50 is below 20 nM.

As to `CN(C)CCN1CCN(C(=O)CNC(=O)c2ccc(S(=O)(=O)Nc3ccccc3Oc3ccccc3)cc2)CC1` [Example 2.3, N-{2-[4-(2-Dimethylamino-ethyl)-piperazin-1-yl]-2-oxo-ethyl}-4-(2-phenoxy-phenylsulfamoyl)-benzamide], the Ki in experiment [1] was below 20 nM. Moreover, in experiment [2], the IC50 is below 20 nM.

As to `O=C(NCC(=O)N1CCN(CCCN2CCCC2)CC1)c1ccc(S(=O)(=O)Nc2ccccc2Oc2ccc(Cl)cc2Cl)cc1` [Example 1.4, 4-[2-(2,4-Dichloro-phenoxy)-phenylsulfamoyl]-N-{2-oxo-2-[4-(3-pyrrolidin-1-yl-propyl)-piperazin-1-yl]-ethyl}-benzamide], the Ki in experiment [1] is below 20 nM. Also, the IC50 in experiment [2] is below 20 nM.

As to `O=C(NCC(=O)N1CCC(N2CCCC2)CC1)c1ccc(S(=O)(=O)Nc2ccccc2Oc2ccc(Cl)cc2Cl)cc1` [Example 1.21, 4-[2-(2,4-Dichloro-phenoxy)-phenylsulfamoyl]-N-[2-oxo-2-(4-pyrrolidin-1-yl-piperidin-1-yl)-ethyl]-benzamide], the Ki in experiment [1] is below 20 nM. For the same compound, in experiment [2], the IC50 is below 20 nM.

With `O=C(NCC(=O)N1CCCN(CCCN2CCCC2)CC1)c1ccc(S(=O)(=O)Nc2ccccc2Oc2ccc(Cl)cc2Cl)cc1` [Example 1.11, 4-[2-(2,4-Dichloro-phenoxy)-phenylsulfamoyl]-N-{2-oxo-2-[4-(3-pyrrolidin-1-yl-propyl)-[1,4]diazepan-1-yl]-ethyl}-benzamide], in experiment [1], the Ki was below 20 nM. For the same compound, the IC50 in experiment [2] was below 20 nM.

For the compound `O=C(NCC(=O)N1CCC(CCN2CCCC2)CC1)c1ccc(S(=O)(=O)Nc2ccccc2Oc2ccc(Cl)cc2Cl)cc1` [Example 1.6, 4-[2-(2,4-Dichloro-phenoxy)-phenylsulfamoyl]-N-{2-oxo-2-[4-(2-pyrrolidin-1-yl-ethyl)-piperidin-1-yl]-ethyl}-benzamide], the Ki in experiment [1] is below 20 nM. Also, the IC50 in experiment [2] was below 20 nM.

Regarding `NC1CCN(C(=O)CNC(=O)c2ccc(S(=O)(=O)Nc3ccccc3Oc3ccccc3)cc2)CC1` [Example 11.3, N-[2-(4-Amino-piperidin-1-yl)-2-oxo-ethyl]-4-(2-phenoxy-phenylsulfamoyl)-benzamide hydrochloride], the Ki in experiment [1] was below 20 nM. Also, the IC50 in experiment [2] was below 20 nM.

In the case of `O=C(NCC(=O)N1CCN(c2ncccn2)CC1)c1ccc(S(=O)(=O)Nc2ccccc2Oc2ccc(Cl)cc2Cl)cc1` [Example 1.7, 4-[2-(2,4-Dichloro-phenoxy)-phenylsulfamoyl]-N-[2-oxo-2-(4-pyrimidin-2-yl-piperazin-1-yl)-ethyl]-benzamide], the Ki in experiment [1] is below 20 nM. For the same compound, in experiment [2], the IC50 was below 20 nM.

In the case of `O=C(NCC(=O)N1CCC(CO)CC1)c1ccc(S(=O)(=O)Nc2ccccc2Oc2ccccc2)cc1` [Example 2.22, N-[2-(4-Hydroxymethyl-piperidin-1-yl)-2-oxo-ethyl]-4-(2-phenoxy-phenylsulfamoyl)-benzamide], the Ki in experiment [1] is below 20 nM. The IC50 in experiment [2] was below 20 nM.

With `O=C(NCC(=O)N1CCNCC1)c1ccc(S(=O)(=O)Nc2ccccc2Oc2ccccc2)cc1` [Example 11.2, N-(2-Oxo-2-piperazin-1-yl-ethyl)-4-(2-phenoxy-phenylsulfamoyl)-benzamide hyrochloride], the Ki in experiment [1] was in the range of 20 to 100 nM. For the same compound, the IC50 in experiment [2] was below 20 nM.

For the compound `O=C(NCC(=O)N1CCCNCC1)c1ccc(S(=O)(=O)Nc2ccccc2Oc2ccc(Cl)cc2Cl)cc1` [Example 11.5, N-(2-[1,4]Diazepan-1-yl-2-oxo-ethyl)-4-[2-(2,4-dichloro-phenoxy)-phenylsulfamoyl]-benzamide hydrochloride], in experiment [1], the Ki was below 20 nM. Moreover, the IC50 in experiment [2] was below 20 nM.

The record behind these values is patent US8481527B2, “Benzamide derivatives as bradykinin antagonists” (Richter Gedeon Nyrt., priority 2006, dated 2013).
